Experimental data reported in ChEMBL document CHEMBL1201862, “PubChem BioAssay data set” (2004).
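Tested at 5 concentrations; 48 h exposure; 96-well plates; endpoints linearly interpolated, else capped at highest concentration. The concentration for 50% growth inhibition is given as GI50.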 Active and inactive are the calls of the source. Cut-off read from the data, not from the text of the source: active = GI50 up to about 1.1 µM and inactive = higher.

Experiments:
Experiment in all cases: NCI tumour cell line growth inhibition, 48 h
786-0 = system: 786-0
BT-549 = system: BT-549
HL-60 = system: HL-60
KM12 = system: KM12
MCF7 = system: MCF7
MDA-N = system: MDA-N
Malme-3M = system: Malme-3M
NCI-H226 = system: NCI-H226
NCI-H23 = system: NCI-H23
OVCAR-3 = system: OVCAR-3
OVCAR-5 = system: OVCAR-5
PC-3 = system: PC-3
RPMI-8226 = system: RPMI-8226
SF-539 = system: SF-539
SNB-75 = system: SNB-75
SW-620 = system: SW-620
TK-10 = system: TK-10
UACC-257 = system: UACC-257
UACC-62 = system: UACC-62
UO-31 = system: UO-31

Measured: GI50

NC1=Nc2ccccc2Sc2nccn21
inactive: 786-0 24.6 µM | BT-549 54.3 µM | HL-60 18.7 µM | KM12 24.2 µM | MCF7 44.3 µM | MDA-N 23 µM | Malme-3M 17.2 µM | NCI-H226 20.9 µM | NCI-H23 23.9 µM | OVCAR-3 18.6 µM | OVCAR-5 48.8 µM | PC-3 22.6 µM | RPMI-8226 18.2 µM | SF-539 23.9 µM | SNB-75 17.9 µM | SW-620 32.3 µM | TK-10 30.6 µM | UACC-257 31.8 µM | UACC-62 28.2 µM | UO-31 23.9 µM
